From patent US20260166039A1 (SCHRÖDINGER, INC., priority 2022, published 2026) come the findings set out here.

The structures appear in SMILES notation. Where two headings read alike, the source gives them in different places. Bounds are passed on as bounds.

One assay deals with T1, Wee1 kinase domain (Homo sapiens, UniProt P30291).
T1 construct: Wee1 kinase domain was purchased from Carna (catalog #05-177); purchased Carna 05-177
Put plainly: Wee1 Kinase Biochemical Assay (ADP-Glo). To be noted: 15 uM ATP. The gist of the method: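 Compounds tested against 1 nM Wee1 kinase domain in Tris buffer containing 20 mM MgCl2, BSA and 2 mM DTT, with 15 uM ATP and poly(Lys,Tyr) substrate for 4 h at 25 °C. Luminescent ADP detection gave percent inhibition, normalized to DMSO and saturating inhibitor.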

Assay [1] concerns phosphorylation of Cdc2 Y15 (Wee1 substrate) in A427 cells. In words: Phosphorylated Cdc2 MSD Electrochemiluminescence Assay. The class given is cell-based. To be noted: Homo sapiens. A digest of the protocol: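 Read-out: percent residual phospho-Cdc2 Y15 relative to DMSO and positive-control Wee1 inhibitor, measured by MSD electrochemiluminescence capture/detection antibody assay in cell lysates. A427 cells received duplicate 3-fold compound dilution series 20 h post-seeding, with 6 h total incubation at 37 °C.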

Setting [2] is: class symbols, 1 nM Wee1 enzyme, 4 hours at 25° C.
[3] abbreviates: A-427, class symbols, read-out: A427 pCDC2 MSD IC50.

T1 sequence (P30291 299-569 limits assumed): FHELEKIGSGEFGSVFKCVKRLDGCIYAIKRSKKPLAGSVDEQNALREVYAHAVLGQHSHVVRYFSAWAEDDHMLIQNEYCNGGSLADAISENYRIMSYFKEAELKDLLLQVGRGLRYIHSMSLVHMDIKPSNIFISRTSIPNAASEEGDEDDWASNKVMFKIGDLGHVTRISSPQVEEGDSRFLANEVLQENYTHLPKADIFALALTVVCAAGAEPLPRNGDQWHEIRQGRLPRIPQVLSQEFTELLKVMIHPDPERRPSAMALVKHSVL

By IC50 is commonly meant the concentration that inhibits the measured activity by half. Regarding `CN1CC2CC1CN2c1ccc(Nc2ncc3c(n2)N(c2cccc(C(F)F)n2)[C@@H]2CC(C)(C)OC[C@]32C)cc1` (stereo in doubt) [Example 814, (4bR,8aR)-9-(6-(difluoromethyl)pyridin-2-yl)-4b,7,7-trimethyl-N-(4-((1R,4R)-5-methyl-2,5-diazabicyclo[2.2.1]heptan-2-yl)phenyl)-4b,5,7,8,8a,9-hexahydropyrano[3′,4′:4,5]pyrrolo[2,3-d]pyrimidin-2-amine], the IC50 on Wee1 kinase domain (1 nM Wee1 enzyme, 4 hours at 25° C) was below 10 nM; in assay [1] (A-427, read-out: A427 pCDC2 MSD IC50), 100 to 1000 nM.
With `CN[C@@H](c1cccc(N2c3nc(Nc4ccc(N5CCN(C)CC5)cc4)ncc3[C@@]3(C)COC(C)(C)C[C@@H]23)n1)C(F)(F)F` [Example 756, (4bR,8aR)-4b,7,7-trimethyl-N-(4-(4-methylpiperazin-1-yl)phenyl)-9-(6-((S)-2,2,2-trifluoro-1-(methylamino)ethyl)pyridin-2-yl)-4b,5,7,8,8a,9-hexahydropyrano[3′,4′:4,5]pyrrolo[2,3-d]pyrimidin-2-amine], the half-inhibitory concentration (IC50) is below 10 nM against Wee1 kinase domain (setting [2]) and 100 to 1000 nM in assay [1] (setting [3]).
In the case of `Cc1cncc(Nc2ncc3c(n2)N(c2cccc(N=S(C)(C)=O)n2)[C@@H]2CC(C)(C)OC[C@]32C)c1` (single isomer, unassigned) [Example 492], the IC50 against Wee1 kinase domain (setting [2]) is below 10 nM; in assay [1] (setting [3]), below 100 nM.
As for `CNCc1cccc(N2c3nc(Nc4ccc(-c5cnn(C)c5)c(C)c4)ncc3[C@@]3(C)COC(C)(C)C[C@@H]23)n1` (single isomer, unassigned) [Example 464], the IC50 against Wee1 kinase domain (setting [2]) is below 10 nM; in assay [1] (setting [3]), 100 to 1000 nM.
For the compound `CNCc1cccc(N2c3nc(Nc4ccc(N5CCOC[C@H]5C)cc4)ncc3[C@@]3(C)COC(C)(C)C[C@@H]23)n1` (single isomer, unassigned) [Example 473], the IC50 against Wee1 kinase domain (setting [2]) was below 10 nM; in assay [1] (setting [3]) it was 100 to 1000 nM.
With `CNCc1cccc(N2c3nc(Nc4ccc([C@H]5CCNC5)cc4)ncc3[C@@]3(C)COC(C)(C)C[C@@H]23)n1` (single isomer, unassigned) [Example 452], the figures for the IC50 (against Wee1 kinase domain (setting [2]); in assay [1] (setting [3])) were below 10 nM and 100 to 1000 nM, respectively.
As to `Cn1ccc(Nc2ncc3c(n2)N(c2cccc(N=S(C)(C)=O)n2)[C@@H]2CC(C)(C)OC[C@]32C)cc1=O` (single isomer, unassigned) [Example 363], the IC50 against Wee1 kinase domain (Wee1 kinase domain, ADP-Glo) is below 10 nM; in assay [1] (A-427, pCDC2 MSD), 100 to 1000 nM.
`CN[C@@H](C)c1cccc(N2c3nc(Nc4ccc(N5C[C@H]6C[C@@H]5CO6)cc4)ncc3[C@]3(C)COC(C)(C)C[C@H]23)n1` (single isomer, unassigned) [Example 579]: the IC50 against Wee1 kinase domain (setting [2]) is below 10 nM; in assay [1] (setting [3]), 100 to 1000 nM.
Take `CN1CC[C@H]2CN(c3ccc(Nc4ncc5c(n4)N(c4cccc(C(C)(C)O)n4)[C@@H]4CC(C)(C)OC[C@]54C)cc3)C[C@H]21` (single isomer, unassigned) [Example 439]: the IC50 is below 10 nM against Wee1 kinase domain (setting [2]) and 100 to 1000 nM in assay [1] (setting [3]).
For `CN1CCN(c2cncc(Nc3ncc4c(n3)N(c3cccc(N=S(C)(C)=O)n3)[C@@H]3CC(C)(C)OC[C@]43C)c2)CC1` (single isomer, unassigned) [Example 483], the IC50 is below 10 nM on Wee1 kinase domain (setting [2]) and below 100 nM in assay [1] (setting [3]).
For `CC1(C)C[C@H]2N(c3cccc(P(C)(C)=O)n3)c3nc(Nc4ccn([C@@H]5CCOC5)c(=O)c4)ncc3[C@@]2(C)CO1` [Example 783, 4-(((4bR,8aR)-9-(6-(dimethylphosphoryl)pyridin-2-yl)-4b,7,7-trimethyl-4b,5,7,8,8a,9-hexahydropyrano[3′,4′:4,5]pyrrolo[2,3-d]pyrimidin-2-yl)amino)-1-((R)-tetrahydrofuran-3-yl)pyridin-2(1H)-one], the IC50 on Wee1 kinase domain (setting [2]) was below 10 nM; in assay [1] (setting [3]), below 100 nM.
On to `C[C@H]1CCC(=O)N1c1cccc(N2c3nc(Nc4ccc(N5C[C@H]6C[C@@H](C5)N6C)cc4)ncc3[C@@]3(C)COC(C)(C)C[C@@H]23)n1` (single isomer, unassigned) [Example 748], for which the IC50 at Wee1 kinase domain (setting [2]) was below 10 nM; in assay [1] (setting [3]) it was 100 to 1000 nM.
Regarding `CC1(C)C[C@H]2N(c3cccc(N=S(C)(C)=O)n3)c3nc(NC(=O)OC4CCOCC4)ncc3[C@@]2(C)CO1` (single isomer, unassigned) [Example 772], the concentration for half-maximal inhibition (IC50) is below 10 nM at Wee1 kinase domain (setting [2]) and 100 to 1000 nM in assay [1] (setting [3]).
In the case of `CN1CCN(c2ccc(Nc3ncc4c(n3)N(c3cccc(P(C)(C)=O)n3)[C@@H]3CC(C)(C)OC[C@]43C)cc2)CC1` (single isomer, unassigned) [Example 753], the IC50 on Wee1 kinase domain (setting [2]) is below 10 nM; in assay [1] (setting [3]), 100 to 1000 nM.
With `CN=[S@@](C)(=O)c1cccc(N2c3nc(Nc4ccc(N5CCN(C)CC5)cc4)ncc3[C@@]3(C)COC(C)(C)C[C@@H]23)n1` (single isomer, unassigned) [Example 765], the IC50 on Wee1 kinase domain (setting [2]) is below 10 nM; in assay [1] (setting [3]), 100 to 1000 nM.
For the compound `CN(C)C(=O)c1ccc(Nc2ncc3c(n2)N(c2cccc(N=S(C)(C)=O)n2)[C@@H]2CC(C)(C)OC[C@]32C)cc1` (single isomer, unassigned) [Example 141], the IC50 against Wee1 kinase domain (Wee1 kinase domain, ADP-Glo) was below 10 nM; in assay [1] (A-427, pCDC2 MSD) it was below 100 nM.
For the compound `CN1C[C@H]2C[C@@H]1CN2c1ccc(Nc2ncc3c(n2)N(c2cccc(C4(O)CC4)n2)C2CC(C)(C)OCC32C)cc1` (stereo in doubt) [Example 646, 1-(6-((4bR,8aR)-4b,7,7-trimethyl-2-((4-((1R,4R)-5-methyl-2,5-diazabicyclo[2.2.1]heptan-2-yl)phenyl)amino)-4b,7,8,8a-tetrahydropyrano[3′,4′:4,5]pyrrolo[2,3-d]pyrimidin-9(5H)-yl)pyridin-2-yl)cyclopropan-1-ol], the figures for the half-maximal inhibitory concentration (IC50) (at Wee1 kinase domain (setting [2]); in assay [1] (setting [3])) were below 10 nM and 100 to 1000 nM, respectively.
With `[2H]C([2H])([2H])n1ccc(Nc2ncc3c(n2)N(c2cccc(N=S(C)(C)=O)n2)[C@@H]2CC(C)(C)OC[C@]32C)cc1=O` (single isomer, unassigned) [Example 378], the IC50 is below 10 nM against Wee1 kinase domain (Wee1 kinase domain, ADP-Glo) and 100 to 1000 nM in assay [1] (A-427, pCDC2 MSD).
As to `Cc1cc(Nc2ncc3c(n2)N(c2cccc(N4C(=O)OC[C@@H]4C)n2)[C@@H]2CC(C)(C)OC[C@]32C)ccc1C1CCN(C)CC1` (single isomer, unassigned) [Example 238], the IC50 is below 10 nM against Wee1 kinase domain (Wee1 kinase domain, ADP-Glo) and 100 to 1000 nM in assay [1] (A-427, pCDC2 MSD).
Consider `C[C@H]1CN(c2ccc(Nc3ncc4c(n3)N(c3cccc(N=S(C)(C)=O)n3)[C@@H]3CC(C)(C)OC[C@]43C)cc2)CCN1C` (single isomer, unassigned) [Example 500], for which the values for the IC50 (at Wee1 kinase domain (setting [2]); in assay [1] (setting [3])) were below 10 nM and below 100 nM, respectively.
For `CN1Cc2cc(Nc3ncc4c(n3)N(c3cccc(N=S(C)(C)=O)n3)[C@@H]3CC(C)(C)OC[C@]43C)ccc2C2(CC2)C1` (single isomer, unassigned) [Example 107], the IC50 against Wee1 kinase domain (Wee1 kinase domain, ADP-Glo) was below 10 nM; in assay [1] (A-427, pCDC2 MSD), below 100 nM.
For the compound `CC1(C)C[C@H]2N(c3cccc(C(C)(C)O)n3)c3nc(Nc4ccc(O[C@H]5CCNC5)cc4)ncc3[C@@]2(C)CO1` (single isomer, unassigned) [Example 419], the values for the IC50 (at Wee1 kinase domain (setting [2]); in assay [1] (setting [3])) were below 10 nM and below 100 nM, respectively.
The matching figures for `CC1(C)C[C@H]2N(c3cccc(N=S(C)(C)=O)n3)c3nc(NC(=O)[C@H]4C[C@@H]4c4cccnc4)ncc3[C@@]2(C)CO1` (single isomer, unassigned) [Example 402]: 10 to 100 nM and 1000 to 10000 nM.
As to `C[C@H]1COC(=O)N1c1cccc(N2c3nc(Nc4ccc(O[C@@H]5CCNC5)cc4)ncc3[C@@]3(C)COC(C)(C)C[C@@H]23)n1` (single isomer, unassigned) [Example 327], the IC50 against Wee1 kinase domain (Wee1 kinase domain, ADP-Glo) is below 10 nM; in assay [1] (A-427, pCDC2 MSD), 100 to 1000 nM.
On to `C[C@H]1COC(=O)N1c1cccc(N2c3nc(Nc4ccc(N5CCNCC5)cc4)ncc3[C@@]3(C)COC(C)(C)C[C@@H]23)n1` (single isomer, unassigned) [Example 260], for which the IC50 against Wee1 kinase domain (Wee1 kinase domain, ADP-Glo) was below 10 nM; in assay [1] (A-427, pCDC2 MSD), 100 to 1000 nM.
Turning to `CN1CC[C@H](n2cc(Nc3ncc4c(n3)N(c3cccc(N=S(C)(C)=O)n3)[C@@H]3CC(C)(C)OC[C@]43C)cn2)C1` (single isomer, unassigned) [Example 198], the IC50 on Wee1 kinase domain (Wee1 kinase domain, ADP-Glo) is below 10 nM; in assay [1] (A-427, pCDC2 MSD), 100 to 1000 nM.
For `C[C@H]1COC(=O)N1c1cccc(N2c3nc(Nc4ccc(OC5CNC5)nc4)ncc3[C@@]3(C)COC(C)(C)C[C@@H]23)n1` (single isomer, unassigned) [Example 343], in that order: below 10 nM and 100 to 1000 nM.
`CN1C[C@@H]2CN(c3ccc(Nc4ncc5c(n4)N(c4cccc(N6CCOC6=O)n4)[C@@H]4CC(C)(C)OC[C@]54C)cc3)C[C@@H]2C1` [Example 692, 3-(6-((4bR,8aR)-4b,7,7-trimethyl-2-((4-((3aR,6aS)-5-methylhexahydropyrrolo[3,4-c]pyrrol-2(1H)-yl)phenyl)amino)-4b,7,8,8a-tetrahydropyrano[3′,4′:4,5]pyrrolo[2,3-d]pyrimidin-9(5H)-yl)pyridin-2-yl)oxazolidin-2-one]: the IC50 is below 10 nM against Wee1 kinase domain (setting [2]) and 100 to 1000 nM in assay [1] (setting [3]).
Take `CN1CCN(c2ccc(Nc3ncc4c(n3)N(c3cccc(C5CC5)n3)[C@@H]3CC(C)(C)OC[C@]43C)cc2)CC1` (single isomer, unassigned) [Example 774]: the IC50 against Wee1 kinase domain (setting [2]) is below 10 nM; in assay [1] (setting [3]), 100 to 1000 nM.
For `Cc1cc(Nc2ncc3c(n2)N(c2cccc(N4C(=O)OC[C@@H]4C)n2)[C@@H]2CC(C)(C)OC[C@]32C)ccc1N1CCN(C)CC1` (single isomer, unassigned) [Example 237], the IC50 on Wee1 kinase domain (Wee1 kinase domain, ADP-Glo) was below 10 nM; in assay [1] (A-427, pCDC2 MSD), below 100 nM.
